# Reference: patent publication US20100311668A1, “PERSONAL CARE AND COSMETIC COMPOSITION CONTAINING TETRAPEPTIDES WITH THE MOTIFS GX1X2G, PX1X2P, OR PX1X2K” (EVONIK GOLDSCHMIDT GMBH, priority 2007, published 2010)
# Ends that are not written are not given here.
# Assays:
# [1] = tested on: proinflammatory cytokines; test: Inhibition of UV-induced expression of proinflammatory cytokines
# [2] = tested on: hyaluronic acid synthetase 1 (HAS1); test: Hyaluronic acid synthetase 1 (HAS1) mRNA expression in human dermal fibroblasts, quantitative PCR; assay type: cell-based; conditions: HDFs, 1 μg/ml peptide, 24 hours, vs PBS control, normalized to 18S rRNA
# Description: (§1) FIG. 2: Hyaluronic acid synthetase 1 (HAS1) expression in human dermal fibroblasts (HDFs). […] Controls received PBS. Cells were harvested after 24 hours incubation and RNA was isolated. Expression of […] was determined by quantitative PCR. 18s rRNA served as house keeping gene for normalization. Given are means of three independent experiments.
# (§2) Therefore, HDFs prepared from neonatal foreskin were cultured in EMEM (Life Technologies GmbH, Eggenstein, Germany) supplemented with 5% fetal calf serum (Greiner, Frickenhausen, Germany), 0.1% 1-glutamine, 2.5% NaHCO3, and 1% streptomycin/amphotericin B in a humidified atmosphere containing 5% CO2 for 4 days until they reached confluence as described by Schieke et al. J Invest Dermatol 2002, 119: 1323-9. […]
# (§3) For isolation of total RNA RNeasy Total RNA Kits (Qiagen, Hilden; Germany) were used according to the manufacturer's guidelines. The RNA concentration was determined via photometric measurement at 260/280 (Biophotometer, Eppendorf, Hamburg, Germany).
# (§4) Aliquots of total RNA (100 ng) were applied for cDNA-Synthesis using Superscript™ III First-Strand synthesis system for the reverse transcription step with random […] (Invitrogen, Karlsruhe, Germany). […] Three independent experiments were performed with 3 determinations each and the mean value of these was calculated. […] Each sample was analyzed in double employing the universal protocol over 46 cycles. […]
# [3] = tested on: human dermal fibroblasts (HDFs); test: Collagen production in human dermal fibroblasts, Sircol Soluble Collagen Assay of culture supernatants; assay type: cell-based; conditions: 1 μg/ml peptide, 24 hours, vs PBS control
# Description: FIG. 5: Collagen production in human dermal fibroblasts (HDFs). […] Controls received PBS. Cell culture supernatands were collected after 24 hours incubation. Amounts of collagen were determined as described above. Given are means of three independent experiments.
# Therefore, HDFs prepared from neonatal foreskin were cultured in EMEM (Life Technologies GmbH, Eggenstein, Germany) supplemented with 5% fetal calf serum (Greiner, Frickenhausen, Germany), 0.1% 1-glutamine, 2.5% NaHCO3, and 1% streptomycin/amphotericin B in a humidified atmosphere containing 5% CO2 for 4 days until they reached confluence as described by Schieke et al. J Invest Dermatol 2002, 119: 1323-9. For all studies, only early passage (<12) fibroblasts have been used to avoid changes in their original phenotype during subculture. Cells were kept in 6 well plates for culture. Peptides dissolved in PBS were added at concentrations of 1 μg/ml and incubated for 24 hours.
# The amount of collagen in cell culture supernatants was determined utilizing a Sircol™ Soluble Collagen Assay (# S1000) from Biocolor Ltd. (Newtownabbay, Northern Ireland, UK) following the guidelines of the manufacturer.
# [4] = tested on: collagen 1 alpha-2 (COL1A2); test: Collagen 1 alpha-2 (COL1A2) mRNA expression in human dermal fibroblasts, quantitative PCR; assay type: cell-based; conditions: HDFs, 1 μg/ml peptide, 24 hours, vs PBS control, normalized to 18S rRNA
# Description: FIG. 4: Collagen 1 alpha-2 (COL1A2) expression in human dermal fibroblasts (HDFs). […] Controls received PBS. Cells were harvested after 24 hours incubation and RNA was isolated. […] 18s rRNA served as house keeping gene for normalization. Given are means of three independent experiments.
# Aliquots of total RNA (100 ng) were applied for cDNA-Synthesis using Superscript™ III First-Strand synthesis system for the reverse transcription step with random healers (Invitrogen, Karlsruhe, Germany). […] Three independent experiments were performed with 3 determinations each and the mean value of these was calculated. […] Each sample was analyzed in double employing the universal protocol over 46 cycles. […]
# [5] = tested on: fibronectin 1 (FN1); test: Fibronectin 1 (FN1) mRNA expression in human dermal fibroblasts, quantitative PCR; assay type: cell-based; conditions: HDFs, 1 μg/ml peptide, 24 hours, vs PBS control, normalized to 18S rRNA
# Description: as §1, with “1: Fibronectin” for “2: Hyaluronic acid synthetase”, “(FN1)” for “(HAS1)”
# as §2, §3, §4
# [6] = tested on: collagen; conditions: prior-art product background; cited from earlier work
# [7] = tested on: collagen 1 alpha-1 (COL1A1); test: Collagen 1 alpha-1 (COL1A1) mRNA expression in human dermal fibroblasts, quantitative PCR; assay type: cell-based; conditions: HDFs, 1 μg/ml peptide, 24 hours, vs PBS control, normalized to 18S rRNA
# Description: as §1, with “3: Collagen” for “2: Hyaluronic acid synthetase”, “alpha-1 (COL1A1)” for “(HAS1)”
# as §2, §3, §4
substance,measurement,setting,value
"PKEK (also: N-acyl group, acyl not given here) [tetrapeptide PKEK]",inhibition of UV-induced expression of proinflammatory cytokines,[1],inhibition of UV-induced expression of proinflammatory cytokines
"GEKG (also: N-acyl group, acyl not given here) [SEQ ID NO:3, tetrapeptide GEKG]",HAS1 expression,[2],strongest effects
same,collagen production (collagen protein in cell culture supernatants),[3],markedly increased production of collagen
"PGPP (also: N-acyl group, acyl not given here) [SEQ ID NO:4, tetrapeptide PGPP]",COL1A2 expression,[4],triggering effects
same,FN1 expression,[5],strongest effects
same,collagen production (collagen protein in cell culture supernatants),[3],markedly increased production of collagen
"GEPG (also: N-acyl group, acyl not given here) [SEQ ID NO:1, tetrapeptide GEPG]",HAS1 expression,[2],strongest effects
same,COL1A2 expression,[4],triggering effects
Val-Trp,collagen stimulating activity,[6],no significant collagen stimulating activity
"GPPG (also: N-acyl group, acyl not given here) [SEQ ID NO:2, tetrapeptide GPPG]",FN1 expression,[5],strongest effects
"GAGP [SEQ ID NO:11, tetrapeptide GAGP]",COL1A1 expression,[7],Strongest effects
